Two molecules from patent US20070191287A1, “D-ribose for improving depression-like symptoms” (priority 2004, published 2007) can be followed below.

The subject of one assay is mice. In words: forced swimming test in mice. Format: in vivo, mice (ddY-strain).
The subject of assay [1] is reserpine-induced hypothermia. In words: reserpine-induced hypothermia competitive test. Type of assay: in vivo, mice (ddY-strain). The procedure: Male 8 ddY-strain mice (5 weeks old, purchased from Japan SLC, Inc.) were used for each group as test animals. The animals were kept under the same conditions as in Example 1. The experiment was carried out on the four groups such as the groups treated with D-ribose at doses of 30 mg/kg, 100 mg/kg, 300 mg/kg, and the control group. The animals were grouped based on the body temperature (rectal temperature) which had been previously measured prior to the experiment so that the average body temperature of each group becomes equal. D-ribose was dissolved in distilled water and administered orally at 10 ml/kg once a day and repeatedly for one week. To the control group, distilled water was administered orally instead of aqueous D-ribose solution. The reserpine-induced hypothermia competitive test was a modification of the method of Wachtel (cf., Neuropharmacology, 22 (3), p. 267-272 (1983)). Namely, a solution of reserpine (Daiichi Pharmaceutical Co. Ltd.) in an aqueous propylene glycol solution was subcutaneously administered to the mice in each group at a dose of 1 mg/kg (i.e., in an amount of 10 ml/kg) just before administration of a test compound or distilled water, and subsequently, D-ribose or distilled water were administered orally to the mice, and then the rectal temperature of each mouse was measured on 1, 2, 4, 6 and 8 hours after administration of D-ribose or distilled water. In the experiment, the reserpine treatment and the administration of the test compound were carried out during from 10:00 AM to 11:00 AM. The results were expressed as mean±standard error in each group. The significant differences between the groups were studied by Bonferroni/Dun multiple comparison test with a significance level of 5%. Male 8 ddY-strain mice (5 weeks old, purchased from Japan SLC, Inc.) were used for each group as test animals. The animals were kept under the same conditions as in Example 1. […] To the control group, distilled water was administered orally. The grouping, the administration of reserpine and the measurement of body temperature were carried out in the same manner as in Example 3. The results were expressed as mean±standard error for each group. The significant differences between the groups were studied by Bonferroni/Dunn multiple comparison test with a significance level of 5%.

The next assay concerns rats. In words: soaking fatigue test in rats. Format: in vivo, rats (SD-strain). The settings on record: orally twice a day divided, 5 days. The procedure:
Male 10 SD-strain rats (7 weeks old, purchased from Japan SLC, Inc.) were used for each group as test animals. The animals were grouped based on the body weights which had been previously measured prior to the experiment so that the average body weight of each group becomes equal. The animals were kept under the same conditions as in Example 1. The experiment was carried out on the 3 groups, such as the groups treated with D-ribose at doses of 300 mg/kg, 1000 mg/kg, and the control group. To the D-ribose-treated groups, D-ribose was dissolved in distilled water for injection in a predetermined amount for each body weight, and the resulting aqueous solution was mandatorily administered orally to the rats at a dose of 10 ml/kg. To the control group, distilled water for injection was mandatorily administered orally instead of aqueous D-ribose solution at a dose of 10 ml/kg.
The soaking fatigue test in rats was carried out by a modification of the method of Tanaka (cf., Igaku-no-Ayumi, 204 (5), 362-364 (2003)). Briefly, the rats in each group were kept in a cage where water at 23±1° C. was filled at a water depth of about 1.5 cm for 5 days, during which D-ribose was orally administered to the rats twice a day at 10 A.M. and 3 P.M. with divided amount of the daily dose (300 mg/kg or 1000 mg/kg), i.e., at each time 150 mg/kg or 500 mg/kg, respectively, for 5 days in a row. Twenty-four hours after the last administration, the rats were loaded with a weight (about 20 g, about 8°% of the body weight) at a position of about ⅘ distant from the root. Each rat was forced to swim individually in a clear acrylic cylindrical water bath (inner diameter: 25 cm, height: 60 cm) containing warm water (25±2° C., water-depth: 50 cm). The time from the beginning of swimming until the nose of the rat sank down into the water for more than 10 seconds was measured.
The results were expressed as mean±standard error for each group. The significant differences between the groups were studied by Bonferroni/Dun multiple comparison test with a significance level of 5%.

The test system of a further assay is human. In words: evaluation of effect of maintaining concentration in human (random number table test). Format: in vivo. The settings on record: healthy volunteers; D-ribose 2.2 g/day for 7 days, crossover vs dextrin control. The source says: The effect of maintaining concentration by D-ribose in human can be evaluated by the test using a random number table (cf., Sports Mental Training for Winning Games, written by Yoshihide TAKAHATA, published by NATSUME CO, LTD., 2003).
Twenty healthy volunteers are grouped into two groups, i.e., the D-ribose 2.2 g/day-treated group, and the control group. The volunteers in the D-ribose 2.2 g/day-treated group take an aqueous solution of D-ribose (2.2 g), a roasted green tea extra (0.24 g) and sucralose (2 mg) in distilled water for injection per day. The volunteers in the control group take an aqueous solution of dextrin (2.2 g), a roasted green tea extra (0.24 g) and sucralose (2 mg) in distilled water per day. […]
The evaluation test for concentration power is carried out as follows. […] Then, the number of marked cells is compared between both groups and the concentration power is evaluated therefrom.
Further, after one-month washout period from the above evaluation test for concentration power, the volunteers in both groups are exchanged each other, and then the same test is carried out again on the volunteers. Combining the results of these two tests, the effect of maintaining concentration by D-ribose is comprehensively evaluated.

The structures appear in SMILES notation.

Protocol for mice: Male 10 ddY-strain mice (5 weeks old, purchased from Japan SLC, Inc.) were used for each group as test animals. The animals were housed in groups of 20 mice in a plastic-made cage (26×43×16 cm; Clea Japan Inc.), and they were kept in the animal room maintained at 23±2° C. with 30 to 80% humidity, and illuminated for 12 hr (6:30 to 18:30). The animals were allowed free access to pellet diets (CRF-1, Oriental Yeast, Co., Ltd.), and tap water.
The experiment was carried out on the four groups, such as the groups treated with D-ribose at doses of 30 mg/kg, 100 mg/kg, 300 mg/kg, and the control group. The animals were grouped based on the body weights which had been previously measured prior to the experiment so that the average body weight of each group becomes equal. D-ribose was dissolved in distilled water and administered orally at 10 ml/kg once a day and repeatedly for one week in mice. To the control group, distilled water was administered orally instead of aqueous D-ribose solution. […] Briefly, the animals were forced to swim twice, i.e., for 15 minutes prior to the treatment of a test compound or distilled water on the day before the final administration, and further for 5 minutes one hour after the final administration on the following day. That is, the mice were forced to swim in a clear polycarbonate-made measuring cylinder (internal diameter: 10 cm, height: 25 cm) containing water up to a height of 10 cm at a temperature of 250° C., and the duration of the immobility during the second swimming was recorded.
The results were expressed as mean±standard error for each group. The significant differences between the groups were studied by Dunnett's multiple comparison test with a significance level of 5%.
Male10 ddY-strain male mice (5 weeks old, purchased from Japan SLC, Inc.) were used for each group as test animals. The animals were kept under the same conditions as in Example 1. The experiment was carried out on the four groups, such as the groups treated with D-ribose 100 mg/kg, potassium magnesium aspartate (Mg.K aspartate) 50 mg/kg, and D-ribose 100 mg/kg+Mg.K aspartate 50 mg/kg, and the control group. The animals were grouped based on the body weights which had been previously measured prior to the experiment so that the average body weight of each group becomes equal. D-ribose and potassium magnesium aspartate were dissolved in distilled water and administered orally at 10 ml/kg once a day and repeatedly for one week. […]
Male 10 ddY-strain mice (5 weeks old, purchased from Japan SLC, Inc.) were used for each group as test animals. The animals were grouped based on the body weights which had been previously measured prior to the experiment so that the average body weight of each group becomes equal. […]

`O=C[C@H](O)[C@H](O)[C@H](O)CO` [D-ribose]: the duration of immobility result was “dose-depending reduction” with mice (Comparative Example 1, D-ribose 100 mg/kg and 300 mg/kg orally for one week); “significantly reduced” with mice (Example 1, 300 mg/kg orally once a day for one week, vs control group); “not significantly reduced” in the assay with mice (Example 2, D-ribose 100 mg/kg alone, orally once a day for one week). Moreover, the “reserpine-induced hypothermia (rectal temperature)” value in assay [1] (Example 3, 30 mg/kg orally once a day for one week, reserpine 1 mg/kg s.c.) was “not significantly alleviated”; in assay [1] (Example 3, 100 mg/kg orally once a day for one week, 4 or 6 hours after administration), “significantly and nearly dose-relatively alleviated”; in assay [1] (Example 3, 300 mg/kg orally once a day for one week, 4 or 6 hours after administration) it was “significantly and nearly dose-relatively alleviated”; in assay [1] (Example 4, D-ribose alone 100 mg/kg orally, at 4 and 6 hours after treatment), “significantly alleviated”. Besides, the “anti-fatigue effect (duration of swimming)” value is “any significant anti-fatigue effect was observed” in the assay on rats (300 mg/kg daily dose, swim 24 h after last administration) and “significant anti-fatigue effect” in the assay with rats (1000 mg/kg daily dose, stress-related fatigue caused by breeding under soaking). Further, the “duration of swimming longer than that in the control group” value in the assay with rats (1000 mg/kg daily dose, swim 24 h after last administration) was “about 70%”. The “concentration power (number of marked cells)” value with human is on record as “dominantly maintained”.
For `N[C@@H](CC(=O)O)C(=O)O.[K+].[Mg+2]` [Mg.K aspartate, potassium magnesium aspartate], the duration of immobility result in the assay on mice (Example 2, Mg.K aspartate 50 mg/kg alone, orally once a day for one week) is on record as “not significantly reduced”.
